Patent US20250099420A1, “SMALL MOLECULE MODULATORS OF GPR139 COMPLEX” (University of Florida Research Foundation, Incorporated, priority 2022, published 2025)
Like-named read-outs stand apart in the source and are kept apart here.

Legend:
GPR139 [1] = target: T1, GPR139 (Homo sapiens, UniProt Q6DWJ6); assay: GPR139 Antagonist titration assay (calcium detection, HEK-GPR139 cells, vs EC80 of S-JNJ-63533054); conditions: for GPR139 Antagonist Activity Averaged Max % Response (±St. Dev.): activity relative to known control; for GPR139 Antagonist Activity Hill Slope: fitted dose-response curve; for GPR139 Antagonist Activity Lipophilic Efficiency (logD): based on logD; for GPR139 Antagonist Activity Lipophilic Efficiency (logP): based on logP
T1 sequence (Q6DWJ6 1-353): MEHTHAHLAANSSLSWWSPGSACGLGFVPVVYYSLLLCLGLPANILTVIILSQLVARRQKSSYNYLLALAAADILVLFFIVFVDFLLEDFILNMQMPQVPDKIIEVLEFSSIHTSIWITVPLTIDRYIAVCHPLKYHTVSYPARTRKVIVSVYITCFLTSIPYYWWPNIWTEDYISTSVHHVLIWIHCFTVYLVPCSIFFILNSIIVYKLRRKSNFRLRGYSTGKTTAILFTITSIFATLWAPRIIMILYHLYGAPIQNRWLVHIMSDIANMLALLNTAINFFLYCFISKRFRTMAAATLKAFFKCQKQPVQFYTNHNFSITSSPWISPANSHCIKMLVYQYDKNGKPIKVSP
Description: (§1) GPR activity was assessed using a calcium detection assay. GPR139 agonists stimulate an increase in intracellular calcium in HEK-GPR139 cells. Agonists increase the release of intracellular calcium, while antagonists decrease the release of intracellular calcium, as compared to an EC80 stimulation of the know agonist S-JNJ-63533054. The positive control for the agonist mode was cells treated with EC100 of known agonist S-JNJ-63533054. Negative control samples were treated with DMSO. The antagonist high control in cells was EC80 of S-JNJ-63533054+IC100 S-JNJ-3792165, while cells were treated with EC80 of S-JNJ-63533054+DMSO for the low control. Intracellular calcium was measured using Calcium 5.
(§2) HEK cells were transfected the DNA encoding GPR139 and incubated for 24 hours. 3000 cells/well in 3 μL HEPES and 1% DMSO were seeded into 1536-well plates. 3 μL Calcium 5 was then added to each well and cells were incubated for 60 min. at 37° C. in 5% CO2 and 95% relative humidity. Cells were pretreated with 50 nL DMSO (5 min. at room temperature in the dark) to stabilize response and desensitize cells to DMSO. A 5 second basal read was recorded and compounds in 30 nL were added to the cells, followed by a 150 second read.
(§3) B. Antagonist Mode: The “High Control” represented wells containing cells with GPR139+Antagonist IC100+Agonist EC80. “Low Control” represented wells containing cells with GPR139 with EC100 Agonist. “0% control” and sample field represented wells containing cells with GPR139 with EC80 Agonist with DMSO or compounds. The Z′ and S:B for this assay were calculated using the High Control and Low Control wells.
(§4) The HEK parental counterscreen utilized the same cells but not transfected with the plasmid. Acetylcholine was used in place of GPR139 agonist as the control compound. The cells were plated overnight, similar to the HEK antagonist counterscreen protocol.
(§5) The GPR139 Agonist and Antagonist titration assays employed the same reagents, protocols, and detection systems as the primary assays, but tested each as 10 point dose response starting at 676 nM concentration in triplicate with 1:3 dilutions. The HEK parental counterscreens utilized the same cells but not transfected with the plasmid. Acetylcholine was used in place of GPR139 agonist as the control compound. The cells were plated overnight, similar to the HEK antagonist counterscreen protocol.
(§6) For each test compound, percent activation was plotted against compound concentration. A four parameter equation describing a sigmoidal dose-response curve was then fitted with adjustable baseline using Assay Explorer software (Symyx Technologies Inc.).

parental HEK cells = assay: HEK parental Antagonist Counterscreen Assay (non-transfected cells, acetylcholine control); assay type: cell-based; conditions: for EC50: Homo sapiens, HEK293, acetylcholine as control, scientific notation, molarity
Description: C. […] The HEK parental counterscreen utilized the same cells but not transfected with the plasmid. The agonist and antagonist modes were run the same way as the primary screen but acetylcholine was used in place of GPR139 agonist as the control compound.
The HEK parental counterscreen utilized the same cells but not transfected with the plasmid. The antagonist modes assays utilized the cells being plated in the 1536 well plate overnight in growth media prior to dye loading in PDL coated plates and acetylcholine was used in place of GPR139 agonist as the control compound.
as §4
The HEK parental counterscreens utilized the same cells but not transfected with the plasmid. Acetylcholine was used in place of GPR139 agonist as the control compound. The cells were plated overnight, similar to the HEK antagonist counterscreen protocol.
as §6

GPR139 [2] = target: T1, GPR139; assay: GPR139 Agonist titration / agonist counterscreen assay (calcium detection, HEK-GPR139 cells); assay type: cell-based; design: expressed in transfected cells; host or cells: HEK Aequorin cells, Maxcyte transient transfection; conditions: agonist counterscreen of the antagonists; for EC50: scientific notation, molarity, read-out: GRP139 Agonist activity EC50
Description: GPR activity was assessed using a calcium detection assay. […] Negative control samples were treated with DMSO. […] Intracellular calcium was measured using Calcium 5.

GPR139 [3] = target: T1, GPR139
Description: as §1, §2, §3, §4, §5, §6

GPR139 [4] = target: T1, GPR139; assay: [3H]JNJ-63533054 radioligand competition binding assay on membranes of HEK293T/17 cells; design: HA signal peptide (HASP) (N); expressed in transfected cells; host or cells: HEK293T/17 cells (membrane preparation); conditions: for inhibition at 10 µM: 10 μM of the indicated compound, (10 μM) JNJ-63533054 as printed in title; for Ki: Ki=IC50/(1+C/Kd), membranes of HEK293T/17 cells expressing human GPR139, read-out: Ki ± SEM
Description: Eighteen compounds were selected for additional study. The compounds were re-synthesized and tested in radioligand binding competition assays for their ability to displace [^3H]-labeled reference agonist JNJ-63533054 on GPR139. The GPR139 construct used (pCDNA3.1-HASP-HA-GPR139) contained an N-terminal HA signal peptide (HASP), followed by an HA tag and human GPR139 (NM_001002911.4). HEK293T/17 cells were maintained in Dulbecco's modified Eagle's medium with 10% (v/v) fetal bovine serum, nonessential amino acids, and 1 mM sodium pyruvate.
Competition binding assay: Radioligand binding assay used human GPR139 expressed in HEK293T/17 cells. HEK293T/17 cells were transfected pCDNA3.1-HASP-HA-GPR139. 48 h after, cells were detached from plates by pipetting with PBS, centrifuged at 500×g for 5 min, and then the fluid was aspirated away. The cell pellets were frozen with liquid nitrogen and stored at −80° C. Pellets were homogenized in TE buffer (50 mM Tris-HCl, pH 7.4, 5 mM EDTA) and centrifuged at 1000×g at 4° C. for 5 min. Supernatant was collected and recentrifuged at 30,000×g at 4° C. for 30 min. The pellet was rehomogenized in TE buffer and incubated for 60 minutes at room temperature with eight concentrations of [^3H]JNJ-63533054 (specific activity 24.7 Ci/mmol) ranging from 0.024 nM to 400 nM. The binding reaction was terminated by filtration through GF/C filter (Waterman) followed by washes with cold TE buffer. Filters were dried in a hood overnight followed by the addition of scintillation fluid. Bound radioactivity was counted on a Hidex 600 liquid scintillation counter. […] Nonspecific binding was determined with 10 μM JNJ-63533054. The Kd values of the radioligands and IC50 of the antagonist were calculated by Graphpad Prism. Ki values were calculated as Ki=IC50/(1+C/Kd), where C is concentration of the radioligand.
Various concentrations of selected ligands were then added in the presence of 10 nM [^3H]-JNJ-63533054 and their ability to displace [^3H]labeling on cellular membranes was assessed. FIGS. 3B and 3C present representative data obtained in these experiments. […] The results of these experiments are presented in the Table 3 and confirm selective binding the compounds to GPR139 thereby validating their interaction with the intended target.

| SMILES | GPR139 Antagonist Activity Ligand Efficiency (GPR139 [1]) | GPR139 Antagonist Activity Averaged Max % Response (±St. Dev.) (GPR139 [1]) [%] | GPR139 Antagonist Activity Hill Slope (GPR139 [1]) | GRP139 Agonist activity Averaged Max % Response (±St. Dev.) (GPR139 [2]) | EC50 (GPR139 [2]) [µM] | GPR139 Antagonist Activity Lipophilic Efficiency (logD) (GPR139 [3]) | GPR139 Antagonist Activity Lipophilic Efficiency (logP) (GPR139 [3]) | EC50 (GPR139 [1]) [µM] | GPR139 Antagonist Activity Lipophilic Efficiency (logD) (GPR139 [1]) | GPR139 Antagonist Activity Lipophilic Efficiency (logP) (GPR139 [1]) | inhibition at 10 µM (GPR139 [4]) [%] | Ki (GPR139 [4]) [µM] | HEK antagonist activity Averaged Max % Response (±St. Dev.) (parental HEK cells) [%] | EC50 (parental HEK cells) [µM] |
| --- | --- | --- | --- | --- | --- | --- | --- | --- | --- | --- | --- | --- | --- | --- |
| Cc1cc(I)ccc1NC(=O)CSc1cccs1 [SR-01000253143] | 0.42 | 63.84 ± 2.29 | 0.87 | 4.38 ± 3.28% | > 14.1 |  |  | 4.3 | 0.78 | 0.78 | 54.3 ± 5.98 | 0.13 ± 0.01 | 22.82 ± 1.84 | > 14.1 |
| CC1CCCC(NC(=O)c2cccc(NS(=O)(=O)c3ccc(Br)cc3)c2)C1C (centres unmarked) [SR-01000594343] | 0.26 | 64.21 ± 3.85 | −1.40 | 16.98 ± 6.81% | > 14.1 |  |  | 7.7 | 0.51 | 0.36 | 87.2 ± 2.37 | 3.05 ± 0.07 | 10.38 ± 17.91 | > 14.1 |
| Nc1cccc(C(=O)Nc2cc(O)n(-c3c(Cl)cc(Cl)cc3Cl)n2)c1 [SR-01000514922] | 0.28 | 80.63 ± 3.57 | 0.70 | 1.17 ± 6.37% | > 14.7 |  |  | 8.6 | 1.63 | 0.55 | 21.8 ± 14.1 | 0.92 ± 0.02 | 16.24 ± 5.67 | > 14.7 |
| O=C(CS(=O)(=O)c1ccccc1)Nc1ccc(Oc2ccccc2)cc1 [SR-01000263867] | 0.31 | 84.30 ± 2.68 | 0.99 | 4.67 ± 4.93% | > 14.1 |  |  | 2.1 | 1.99 | 1.99 | 59.3 ± 7.51 | 4.91 ± 1.1 | 20.24 ± 7.73 | > 14.1 |
| O=C(CCCC(=O)OCC(Cl)=C(Cl)Cl)Nc1ccccc1F [SR-01000195221] | 0.33 | 86.87 ± 1.46 | 0.88 | 3.53 ± 6.53% | > 14.1 |  |  | 6.3 | 1.71 | 1.71 | 77.7 ± 1.19 | 9.98 ± 0.23 | 28.17 ± 14.51 | > 14.1 |
| CCCOC(=O)c1ccc(NC(=O)CSc2ccccc2)cc1 [SR-01000244770] | 0.31 | 82.77 ± 1.38 | 1.77 | 7.91 ± 4.93% | > 14.1 |  |  | 6.9 | 1.07 | 1.07 | 56.3 ± 7.8 | 146 ± 0.003 | 15.65 ± 7.33 | > 14.1 |

Second part, led by results:

| GPR139 Antagonist Activity Ligand Efficiency (GPR139 [1]) | GPR139 Antagonist Activity Averaged Max % Response (±St. Dev.) (GPR139 [1]) [%] | GPR139 Antagonist Activity Hill Slope (GPR139 [1]) | GRP139 Agonist activity Averaged Max % Response (±St. Dev.) (GPR139 [2]) | EC50 (GPR139 [2]) [µM] | GPR139 Antagonist Activity Lipophilic Efficiency (logD) (GPR139 [3]) | GPR139 Antagonist Activity Lipophilic Efficiency (logP) (GPR139 [3]) | EC50 (GPR139 [1]) [µM] | GPR139 Antagonist Activity Lipophilic Efficiency (logD) (GPR139 [1]) | GPR139 Antagonist Activity Lipophilic Efficiency (logP) (GPR139 [1]) | inhibition at 10 µM (GPR139 [4]) [%] | Ki (GPR139 [4]) [µM] | SMILES | HEK antagonist activity Averaged Max % Response (±St. Dev.) (parental HEK cells) [%] | EC50 (parental HEK cells) [µM] |
| --- | --- | --- | --- | --- | --- | --- | --- | --- | --- | --- | --- | --- | --- | --- |
| 0.28 | 90.42 ± 3.10 | 0.57 | 13.90 ± 4.27% | > 13.2 | −768.6E−3 | −768.8E−3 |  |  |  |  |  | Cc1cccc(-n2cc(-c3ccccc3)nc2SCC(=O)Nc2ccccc2C)c1 [SR-01000555475] | 9.07 ± 0.74 |  |
| 0.23 | 67.9 ± 10.41 | 1.28 | 0.45 ± 5.31% | > 11.7 |  |  | 7.8 | 0.44 | 0.44 | 102 ± 4.88 | 0.98 ± 0.02 | CCOC(=O)c1c(C)nc2c(c1-c1ccc(F)cc1)C(=O)CC(c1ccc(Cl)cc1)C2 (centres unmarked) [SR-01000419112] | 18.74 ± 4.66 | > 11.7 |
| 0.28 | 81.68 ± 2.49 | 0.62 | 5.61 ± 4.33% | > 14.1 |  |  | 6.9 | 2.48 | 2.23 | -117 ± 2.89 | 8.03 ± 0.18 | CCN1C(=O)c2cccc3c(S(=O)(=O)Nc4cccc(F)c4)ccc1c23 [SR-01000110577] | 24.57 ± 3.75 | > 14.1 |
| 0.32 | 79.69 ± 2.61 | 1.19 | −2.6E+0 ± 5.95 ^ % | > 16.2 |  |  | 8.7 | 1.04 | 1.04 | 22 ± 2.59 | 13.3 ± 0.3 | CC(=O)N1N=C(c2ccc(C)cc2)CC1c1ccccc1Cl (centres unmarked) [SR-01000462122] | 17.80 ± 3.32 | > 16.2 |
| 0.34 | 102.3 ± 0.93 | 1.14 | 45.23 ± 2.15% | > 14.1 |  |  | 2.3 | 1.45 | 1.45 | 35.6 ± 21.2 | 7.14 ± 0.16 | Cc1cccc(NC(=O)CCC(=O)OCc2ccc(Br)cc2)c1 [SR-01000258561] | 50.40 ± 13.43 | 13.8 |
| 0.29 | 72.33 ± 6.63 | 1.00 | 7.64 ± 5.47% | > 14.1 |  |  | 6 | 1.70 | 1.56 | 72.2 ± 2.78 | 1.06 ± 0.02 | COc1ccc(-c2cccc(NS(=O)(=O)c3ccc(I)cc3)c2)nn1 [SR-01000914310] | 26.24 ± 12.88 | > 14.1 |
